Measurements from patent publication US20130209625A1, “METHODS AND COMPOSITIONS FOR STIMULATING A FELIDAE T1R RECEPTOR” (MONELL CHEMICAL SENSES CENTER, priority 2010, published 2013).

Test system: Felidae T1R1/T1R3 receptor
Assay: Calcium imaging (fura-2, F340/F380) of HEK293 cells expressing T1R1/T1R3 receptor and Gα15, responses to taste stimuli
Assay type: cell-based, cat
From the text: Provided herein are methods for determining if two or more test compounds have an augmenting effect on the T1R1/T1R3 receptor where each test compound alone elicits a small or moderate response comprising contacting the receptor with the test compounds, and measuring the response of the receptor to the test compounds, wherein the compounds have an augmenting effect on the receptor if the response of the receptor to the compounds in a mixture in which each compound is presented at a given concentration is greater than the response to either one of the compounds alone at its given respective concentration. Responses are measured in terms of the Fluorescence Ratio F340/F380 as detailed in the Examples. Responses are gauged by comparing each response with the response to 100 μM isoproterenol, the positive control which activates the cell through Gα15. A null response is less than 10% of the control response. A small or moderate response is equal to or greater than 10% of the control response. In some preferred embodiments, the T1R1/T1R3 receptor is a Felidae T1R1/T1R3 receptor
b. Cell Transfection: HEK293 cell lines that stably express Gα15 were grown and maintained at 37° C. DMEM supplemented with 10% FBS and MEM nonessential amino acids (Invitrogen); the medium for Gα15 transfected cells contains 5 μg/ml blasticidin (Invitrogen). Cells were co-transfected with expression constructs by using Lipofectamine 2000 reagent (Invitrogen). T1R1/T1R3 transfected cells were selected using Zeocin (100 μg/ml) and hygromycin (400 μg/ml).
c. Establishing stable cell lines: Transfected cells were maintained in antibiotic selective medium until colonies appear. Single colonies were identified two weeks after transfection and were examined for RNA expression by RT-PCR and for protein expression by immunohistochemistry. Positive colonies confirmed by RT-PCR and immunohistochemistry were stocked in liquid nitrogen as stable cell lines expressing T1R1/T1R3.
a. In vitro assays: HEK293 cells' responses to taste stimuli were measured using calcium imaging techniques (Nelson et al. 2001, Li et al. 2002, Gomez et al. 2005). Transfected cells were loaded with fura-2 containing buffer for one hour. Coverslips with fura-2 loaded cells were then placed in a recording chamber and continuously superfused with Hank's salt solution (Nelson et al. 2001). Enhancement solutions were applied by switching the superfusion, which allowed a complete change of bath solutions within 5-20 seconds, based on preliminary experiments with fluorescent dye for each setup and recording chamber. Calcium imaging recordings were performed using Imagemaster-5 multi-wavelength quantitative fluorescence imaging system (Photon Technology International, Inc.). Cells were illuminated with UV light at two wavelengths (340 or 380 nm). Intracellular calcium activity was computed from the ratio of emitted light from the 340/380 nm wavelengths. Excitation light was shuttered between acquisitions, with exposure times being minimized (typically 50-100 msec). Images are normally acquired every 2-5 sec. Using these conditions, cells remain viable in the recording setup for more than 2 h without significant effects of dye bleaching or baseline shifts. The use of ratiometric imaging reduces the problems associated with fluorescence quenching or dye loss that can generate artifacts using single-wavelength dyes.
b. Amino acid stimulation of the HEK transfected cell lines: In a typical experiment to determine if there is an interaction at the receptor between two compounds, the response (peak height of intracellular calcium concentration) to each compound as well as a mixture of the two compounds is measured. If each compound alone elicits a small or moderate response, it will be necessary to compare responses to single compounds with a mixture in which each compound is presented at its initial test concentration. In this manner we can determine if the enhancement is greater than simple additivity. […]

## N[C@@H](Cc1c[nH]cn1)C(=O)O [L-histidine]
FIG. 4, 5 cells
  augmentation of response by pyrophosphate: not augmented
FIG. 4, 5 cells, 25 mM L-histidine alone
  response of HEK293 cells (calcium imaging): null responses
FIG. 5, 25 mM L-histidine alone
  response of HEK293 cell (calcium imaging): null responses

## NCCCC[C@H](N)C(=O)O [L-lysine]
FIG. 4, 5 cells, 25 mM L-lysine alone
  response of HEK293 cells (calcium imaging): null responses
FIG. 6, 25 mM L-lysine alone
  response of HEK293 cell (calcium imaging): null response (A null response is less than 10% of the control response)

## O=P([O-])([O-])OP(=O)([O-])O.[Na+].[Na+].[Na+] [sodium pyrophosphate, trisodium pyrophosphate]
FIG. 3, 10 mM sodium pyrophosphate presented singly
  response of HEK293 cell (calcium imaging): null responses
FIG. 3, 20 mM sodium pyrophosphate presented singly
  response of HEK293 cell (calcium imaging): null responses
FIG. 4, 5 cells, 20 mM sodium pyrophosphate alone
  response of HEK293 cells (calcium imaging): null responses
FIG. 6, 20 mM sodium pyrophosphate alone
  response of HEK293 cell (calcium imaging): weak response

## C[C@H](N)C(=O)O [L-alanine]
FIG. 5, 25 mM L-alanine alone
  response of HEK293 cell (calcium imaging): null responses

## O=C(O)[C@@H]1CCCN1 [L-proline]
FIG. 1, 25 mM L-proline alone, vs 100 μM isoproterenol positive control
  response of HEK293 cell (calcium imaging): null responses
FIG. 2, 3 cells, 50 mM L-proline alone
  response of HEK293 cells (calcium imaging): null responses
FIG. 3, 50 mM L-proline presented singly
  response of HEK293 cell (calcium imaging): null responses
